# Data reported in ChEMBL document CHEMBL1129670, “Synthesis and structure-activity relationships of N-propyl-N-(4-pyridinyl)-1H-indol-1-amine (besipirdine) and related analogs as potential therapeutic agents for Alzheimer's disease” (J Med Chem, 1996).
# pIC50: −log10 of the molar value.
# Key:
# [1] = target: T1, Adrenergic receptor alpha-2 (Rattus norvegicus, UniProt P22086+P19328+P22909); assay: Inhibitory activity against [3H]idazoxan binding to Alpha-2 adrenergic receptor in rat cortex, in the presence of GPP
# T1 sequence (P22086 whole entry): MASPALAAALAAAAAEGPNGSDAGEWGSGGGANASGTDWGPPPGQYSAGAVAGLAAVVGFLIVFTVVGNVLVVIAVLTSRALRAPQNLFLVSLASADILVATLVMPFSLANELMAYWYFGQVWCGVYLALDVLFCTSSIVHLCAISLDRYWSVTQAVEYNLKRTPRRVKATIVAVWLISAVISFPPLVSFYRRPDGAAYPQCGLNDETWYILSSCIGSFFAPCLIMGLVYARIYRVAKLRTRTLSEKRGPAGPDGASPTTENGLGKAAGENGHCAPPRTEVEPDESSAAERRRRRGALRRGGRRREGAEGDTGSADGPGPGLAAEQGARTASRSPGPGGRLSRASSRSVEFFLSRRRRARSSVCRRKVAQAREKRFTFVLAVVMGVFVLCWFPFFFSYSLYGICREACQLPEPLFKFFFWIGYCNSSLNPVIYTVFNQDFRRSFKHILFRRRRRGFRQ
# T1 sequence (P19328 whole entry): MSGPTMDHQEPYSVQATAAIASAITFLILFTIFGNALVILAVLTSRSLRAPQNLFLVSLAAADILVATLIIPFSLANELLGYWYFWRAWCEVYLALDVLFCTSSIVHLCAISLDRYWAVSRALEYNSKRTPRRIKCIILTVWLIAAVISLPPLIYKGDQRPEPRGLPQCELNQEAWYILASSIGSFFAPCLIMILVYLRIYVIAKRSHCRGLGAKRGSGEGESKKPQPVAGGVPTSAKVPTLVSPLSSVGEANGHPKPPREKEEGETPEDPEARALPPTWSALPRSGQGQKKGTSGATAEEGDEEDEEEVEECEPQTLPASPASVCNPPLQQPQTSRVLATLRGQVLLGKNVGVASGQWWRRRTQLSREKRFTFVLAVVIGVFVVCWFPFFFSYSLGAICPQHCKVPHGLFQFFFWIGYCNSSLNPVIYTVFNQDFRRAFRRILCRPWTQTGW
# T1 sequence (P22909 whole entry): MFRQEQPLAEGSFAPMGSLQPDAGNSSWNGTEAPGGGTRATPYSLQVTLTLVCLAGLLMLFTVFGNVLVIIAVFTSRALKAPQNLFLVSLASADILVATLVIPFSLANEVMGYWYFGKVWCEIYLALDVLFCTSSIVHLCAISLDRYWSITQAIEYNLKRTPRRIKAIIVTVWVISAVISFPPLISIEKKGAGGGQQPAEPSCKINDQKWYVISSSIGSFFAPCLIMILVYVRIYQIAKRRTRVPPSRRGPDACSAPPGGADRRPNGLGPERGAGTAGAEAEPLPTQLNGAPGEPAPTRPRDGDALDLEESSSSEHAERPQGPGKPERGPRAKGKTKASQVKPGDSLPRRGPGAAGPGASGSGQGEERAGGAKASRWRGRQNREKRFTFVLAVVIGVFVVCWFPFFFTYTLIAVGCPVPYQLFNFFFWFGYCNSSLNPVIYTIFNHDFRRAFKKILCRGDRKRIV
# [2] = target: Kappa-type opioid receptor (Cavia porcellus, UniProt P41144); assay: Inhibitory activity against [3H]bremazocine binding to kappa opioid receptor in guinea pig cerebellum; format: tissue-based
# Chain of Kappa-type opioid receptor (P41144 whole entry): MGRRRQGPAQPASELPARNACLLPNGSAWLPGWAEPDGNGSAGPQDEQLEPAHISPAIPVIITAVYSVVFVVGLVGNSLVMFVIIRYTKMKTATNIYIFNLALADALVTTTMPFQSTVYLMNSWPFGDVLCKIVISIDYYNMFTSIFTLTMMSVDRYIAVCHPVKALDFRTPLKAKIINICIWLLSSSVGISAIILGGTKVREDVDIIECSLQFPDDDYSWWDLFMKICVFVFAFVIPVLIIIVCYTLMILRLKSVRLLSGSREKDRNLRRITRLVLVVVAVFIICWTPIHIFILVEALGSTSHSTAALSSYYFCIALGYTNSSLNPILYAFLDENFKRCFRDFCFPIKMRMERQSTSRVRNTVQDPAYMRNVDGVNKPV
compound,measurement,setting,value
CCCN(c1ccncc1)n1ccc2ccccc21 [BESIPIRDINE],IC50,[1],0.14 µM
same,pIC50,[2],< 5.00
